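Grown in 96-well plates, cells were treated for 48 hours with each compound at five concentrations. Insufficient inhibition: endpoint recorded as highest concentration tested. TGI denotes the concentration required for complete inhibition of growth.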
How the values were obtained:
Test in all cases: growth of human tumour cells (NCI), 48 h
[1] = tested on: NCI-H226 lung
[2] = tested on: CCRF-CEM leukemia
[3] = tested on: M19-MEL melanoma
[4] = tested on: K-562 leukemia
[5] = tested on: DMS 273 small cell lung
[6] = tested on: KM12 colon
[7] = tested on: OVCAR-5 ovarian
[8] = tested on: HCT-116 colon
[9] = tested on: TK-10 renal
[10] = tested on: SR leukemia
[11] = tested on: SF-268 CNS
[12] = tested on: SNB-75 CNS
[13] = tested on: SNB-78 CNS
[14] = tested on: HOP-18 NSCLC
[15] = tested on: HCC-2998 colon
[16] = tested on: SK-MEL-28 melanoma
[17] = tested on: EKVX NSCLC
[18] = tested on: ACHN renal
[19] = tested on: OVCAR-8 ovarian
[20] = tested on: HL-60(TB) leukemia
[21] = tested on: 786-0 renal
[22] = tested on: DMS 114 small cell lung
[23] = tested on: SNB-19 CNS
[24] = tested on: CAKI-1 renal
[25] = tested on: SK-MEL-5 melanoma
[26] = tested on: COLO 205 colon
[27] = tested on: MOLT-4 leukemia
[28] = tested on: M14 melanoma
[29] = tested on: SW-620 colon
[30] = tested on: MALME-3M melanoma
[31] = tested on: NCI-H23 lung
[32] = tested on: UO-31 renal
[33] = tested on: HCT-15 colon
[34] = tested on: NCI-H522 lung
[35] = tested on: UACC-257 melanoma
[36] = tested on: SF-539 CNS
[37] = tested on: OVCAR-4 ovarian
[38] = tested on: XF 498 CNS
[39] = tested on: SK-MEL-2 melanoma
[40] = tested on: SF-295 CNS
[41] = tested on: NCI-H460 lung
[42] = tested on: LOX IMVI melanoma
[43] = tested on: HT29 colon
[44] = tested on: OVCAR-3 ovarian
[45] = tested on: HOP-62 NSCLC
[46] = tested on: SN12C renal
[47] = tested on: RPMI-8226 leukemia
[48] = tested on: A549 NSCLC
[49] = tested on: U251 CNS
[50] = tested on: HOP-92 NSCLC
[51] = tested on: KM20L2 colon
[52] = tested on: IGROV1 ovarian
[53] = tested on: UACC-62 melanoma
[54] = tested on: SK-OV-3 ovarian
[55] = tested on: RXF 393 renal
[56] = tested on: DLD-1 colon
[57] = tested on: A498 renal
[58] = tested on: LXFL 529 NSCLC

## COc1ccc(/C=C2\C(=O)N(C(=O)c3ccc(NC(C)=O)cc3)N=C2C)cc1
[1]
  TGI: > 100 µM
[2]
  TGI: > 100 µM
[3]
  TGI: > 100 µM
[4]
  TGI: > 100 µM
[5]
  TGI: > 100 µM
[6]
  TGI: > 100 µM
[7]
  TGI: > 100 µM
[8]
  TGI: > 100 µM
[9]
  TGI: > 100 µM
[10]
  TGI: > 100 µM
[11]
  TGI: > 100 µM
[12]
  TGI: > 100 µM
[13]
  TGI: > 100 µM
[14]
  TGI: > 100 µM
[15]
  TGI: > 100 µM
[16]
  TGI: > 100 µM
[17]
  TGI: > 100 µM
[18]
  TGI: > 100 µM
[19]
  TGI: > 100 µM
[20]
  TGI: > 100 µM
[21]
  TGI: > 100 µM
[22]
  TGI: > 100 µM
[23]
  TGI: > 100 µM
[24]
  TGI: > 100 µM
[25]
  TGI: > 100 µM
[26]
  TGI: > 100 µM
[27]
  TGI: > 100 µM
[28]
  TGI: > 100 µM
[29]
  TGI: > 100 µM
[30]
  TGI: > 100 µM
[31]
  TGI: > 100 µM
[32]
  TGI: > 100 µM
[33]
  TGI: > 100 µM
[34]
  TGI: > 100 µM
[35]
  TGI: > 100 µM
[36]
  TGI: > 100 µM
[37]
  TGI: > 100 µM
[38]
  TGI: > 100 µM
[39]
  TGI: > 100 µM
[40]
  TGI: > 100 µM
[41]
  TGI: > 100 µM
[42]
  TGI: > 100 µM
[43]
  TGI: > 100 µM
[44]
  TGI: > 100 µM
[45]
  TGI: > 100 µM
[46]
  TGI: > 100 µM
[47]
  TGI: > 100 µM
[48]
  TGI: > 100 µM

## COc1ccc(S(=O)(=O)N/N=C\c2cc([N+](=O)[O-])cc(I)c2O)c(OC)c1OC
[1]
  TGI: 41.9 µM
[2]
  TGI: 59.1 µM
[3]
  TGI: 87.2 µM
[49]
  TGI: 66 µM
[4]
  TGI: > 100 µM
[5]
  TGI: > 100 µM
[50]
  TGI: 37 µM
[6]
  TGI: > 100 µM
[7]
  TGI: > 100 µM
[9]
  TGI: > 100 µM
[51]
  TGI: > 100 µM
[11]
  TGI: 75 µM
[12]
  TGI: 70.1 µM
[13]
  TGI: 74 µM
[14]
  TGI: 63.5 µM
[52]
  TGI: > 100 µM
[15]
  TGI: 86.8 µM
[16]
  TGI: 64.7 µM
[17]
  TGI: 80.7 µM
[18]
  TGI: 92.1 µM
[19]
  TGI: > 100 µM
[53]
  TGI: 45.4 µM
[54]
  TGI: 64 µM
[20]
  TGI: 71.4 µM
[21]
  TGI: 61.4 µM
[22]
  TGI: 64.6 µM
[23]
  TGI: 76.3 µM
[24]
  TGI: 67.4 µM
[25]
  TGI: 45.5 µM
[26]
  TGI: 45 µM
[27]
  TGI: 64.9 µM
[28]
  TGI: 77.6 µM
[29]
  TGI: > 100 µM
[30]
  TGI: 85.2 µM
[31]
  TGI: 67.1 µM
[32]
  TGI: 40.2 µM
[33]
  TGI: 55.8 µM
[55]
  TGI: 54.6 µM
[35]
  TGI: 75.5 µM
[37]
  TGI: 72.7 µM
[38]
  TGI: 48 µM
[56]
  TGI: 95.1 µM
[39]
  TGI: 45.3 µM
[40]
  TGI: > 100 µM
[41]
  TGI: > 100 µM
[42]
  TGI: 92.4 µM
[43]
  TGI: > 100 µM
[44]
  TGI: 62.8 µM
[57]
  TGI: 83 µM
[46]
  TGI: > 100 µM
[47]
  TGI: 71.6 µM
[48]
  TGI: > 100 µM

## Nc1nc(SCCC/C=C/B(O)O)nc2c1ncn2C1OC(COP(=O)(O)O)C(O)C1O (stereo not drawn)
[1]
  TGI: > 203 µM
[2]
  TGI: > 203 µM
[3]
  TGI: > 203 µM
[49]
  TGI: > 203 µM
[4]
  TGI: > 203 µM
[5]
  TGI: > 203 µM
[50]
  TGI: > 203 µM
[6]
  TGI: > 203 µM
[7]
  TGI: > 203 µM
[8]
  TGI: > 203 µM
[9]
  TGI: > 203 µM
[51]
  TGI: > 203 µM
[10]
  TGI: > 203 µM
[11]
  TGI: > 203 µM
[12]
  TGI: > 203 µM
[13]
  TGI: > 203 µM
[14]
  TGI: > 203 µM
[52]
  TGI: > 203 µM
[16]
  TGI: > 203 µM
[18]
  TGI: > 203 µM
[19]
  TGI: > 203 µM
[53]
  TGI: > 203 µM
[54]
  TGI: > 203 µM
[20]
  TGI: > 203 µM
[21]
  TGI: > 203 µM
[22]
  TGI: > 203 µM
[23]
  TGI: > 203 µM
[24]
  TGI: > 203 µM
[25]
  TGI: > 203 µM
[26]
  TGI: > 203 µM
[27]
  TGI: > 203 µM
[28]
  TGI: > 203 µM
[29]
  TGI: > 203 µM
[30]
  TGI: > 203 µM
[31]
  TGI: > 203 µM
[32]
  TGI: > 203 µM
[33]
  TGI: > 203 µM
[34]
  TGI: > 203 µM
[35]
  TGI: > 203 µM
[36]
  TGI: > 203 µM
[37]
  TGI: > 203 µM
[38]
  TGI: > 203 µM
[56]
  TGI: > 203 µM
[39]
  TGI: > 203 µM
[40]
  TGI: > 203 µM
[41]
  TGI: > 203 µM
[42]
  TGI: > 203 µM
[43]
  TGI: > 203 µM
[44]
  TGI: > 203 µM
[57]
  TGI: > 203 µM
[45]
  TGI: > 203 µM
[46]
  TGI: > 203 µM
[47]
  TGI: > 203 µM
[48]
  TGI: > 203 µM

## Cc1cc(O)c(C(=O)O)c2c1C(=O)c1c(O)c(OCC(O)C(O)C(O)C(O)CO)c(O)c(O)c1C2=O (stereo not drawn) (tested in a mixture with another compound)
[1]
  TGI: > 100 µM
[2]
  TGI: > 100 µM
[3]
  TGI: > 100 µM
[49]
  TGI: > 100 µM
[4]
  TGI: > 100 µM
[50]
  TGI: > 100 µM
[6]
  TGI: > 100 µM
[7]
  TGI: > 100 µM
[9]
  TGI: > 100 µM
[51]
  TGI: > 100 µM
[11]
  TGI: > 100 µM
[12]
  TGI: > 100 µM
[13]
  TGI: > 100 µM
[14]
  TGI: > 100 µM
[52]
  TGI: > 100 µM
[15]
  TGI: > 100 µM
[16]
  TGI: > 100 µM
[17]
  TGI: > 100 µM
[19]
  TGI: > 100 µM
[53]
  TGI: > 100 µM
[54]
  TGI: > 100 µM
[21]
  TGI: > 100 µM
[22]
  TGI: > 100 µM
[23]
  TGI: > 100 µM
[24]
  TGI: > 100 µM
[25]
  TGI: > 100 µM
[26]
  TGI: > 100 µM
[27]
  TGI: > 100 µM
[28]
  TGI: > 100 µM
[58]
  TGI: > 100 µM
[29]
  TGI: > 100 µM
[30]
  TGI: > 100 µM
[31]
  TGI: > 100 µM
[32]
  TGI: > 100 µM
[33]
  TGI: > 100 µM
[55]
  TGI: > 100 µM
[34]
  TGI: > 100 µM
[35]
  TGI: > 100 µM
[36]
  TGI: > 100 µM
[37]
  TGI: > 100 µM
[38]
  TGI: > 100 µM
[56]
  TGI: > 100 µM
[39]
  TGI: > 100 µM
[40]
  TGI: > 100 µM
[42]
  TGI: > 100 µM
[43]
  TGI: > 100 µM
[44]
  TGI: > 100 µM
[57]
  TGI: > 100 µM
[45]
  TGI: > 100 µM
[46]
  TGI: > 100 µM
[47]
  TGI: > 100 µM
[48]
  TGI: > 100 µM

## CN(C)N=Nc1ccccc1
[1]
  TGI: > 100 µM
[2]
  TGI: > 100 µM
[3]
  TGI: > 100 µM
[49]
  TGI: > 100 µM
[4]
  TGI: > 100 µM
[5]
  TGI: > 100 µM
[50]
  TGI: > 100 µM
[6]
  TGI: > 100 µM
[8]
  TGI: > 100 µM
[9]
  TGI: > 100 µM
[51]
  TGI: > 100 µM
[10]
  TGI: > 100 µM
[11]
  TGI: > 100 µM
[12]
  TGI: > 100 µM
[14]
  TGI: > 100 µM
[52]
  TGI: > 100 µM
[15]
  TGI: > 100 µM
[16]
  TGI: > 100 µM
[17]
  TGI: > 100 µM
[18]
  TGI: > 100 µM
[19]
  TGI: > 100 µM
[54]
  TGI: > 100 µM
[20]
  TGI: > 100 µM
[21]
  TGI: > 100 µM
[22]
  TGI: > 100 µM
[23]
  TGI: > 100 µM
[24]
  TGI: > 100 µM
[25]
  TGI: > 100 µM
[26]
  TGI: > 100 µM
[27]
  TGI: > 100 µM
[28]
  TGI: > 100 µM
[58]
  TGI: > 100 µM
[29]
  TGI: > 100 µM
[30]
  TGI: > 100 µM
[31]
  TGI: > 100 µM
[32]
  TGI: > 100 µM
[33]
  TGI: > 100 µM
[55]
  TGI: > 100 µM
[34]
  TGI: > 100 µM
[36]
  TGI: > 100 µM
[37]
  TGI: > 100 µM
[38]
  TGI: > 100 µM
[56]
  TGI: > 100 µM
[39]
  TGI: > 100 µM
[40]
  TGI: > 100 µM
[41]
  TGI: > 100 µM
[43]
  TGI: > 100 µM
[44]
  TGI: > 100 µM
[57]
  TGI: > 100 µM
[46]
  TGI: > 100 µM
[47]
  TGI: > 100 µM
[48]
  TGI: > 100 µM

Source: PubChem BioAssay (NCI)
